From the supplement of paper PMC3068080

Key:
TGFBR1 mRNA = assay: remaining TGFBR1 mRNA relative to control siRNA (off-target knock-down) (fraction of control); quantification method: branched DNA; higher = less knock-down
Procedure: (§1)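 Screen-hit siRNA duplexes (19-mer plus 3' dTdT overhang) were transiently transfected into HaCaT cells in 12-well plates. After 48 h, TGFBR1 and TGFBR2 mRNA were quantified by branched DNA assay (QuantiGene, normalised to HPRT1) or by SYBR qPCR (normalised to HPRT1/SMAD4). Values are the remaining mRNA relative to control-siRNA-transfected cells; 1-2 biological replicates.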

TGFBR2 mRNA = assay: remaining TGFBR2 mRNA relative to control siRNA (off-target knock-down) (fraction of control); quantification method: branched DNA; higher = less knock-down
Procedure: as §1

Sequence | remaining TGFBR1 mRNA (TGFBR1 mRNA) | remaining TGFBR2 mRNA (TGFBR2 mRNA)
AAAAACCCUUUCCUGGGGCTT | 0.36 | 0.21
AAAAGGCCUUCAAGCUGUUTT | 0.56 | 0.41
AAAUGCUCCACCUCUCGGGTT | 0.37 | 0.28
AACAUAGCCUCAUACAAGGTT | 0.7 | 0.25
AAGUCUGACUCGGUAAGUATT | 0.87 | 0.72
AAGUGCAUUCCGUGCAAUCTT | 0.92 | 0.59
AAUCAGGGCGGAGUAGGUGTT | 1.21 | 0.91
AAUCCUCUGGUGACUGCUGTT | 1.13 | 0.54
AAUGCUGUUGGCAGCCAGATT | 0.71 | 0.11
AAUGGGAGACAAGCCAAUUTT | 0.77 | 0.25
AAUUGGCUCCACAGUCUUUTT | 1.23 | 0.44
ACAGCCUCGAACACUGACATT | 1.04 | 0.58
ACCAUGUCGGCCUUUUCAATT | 0.35 | 0.5
ACCUUACCUUGUCGACGAATT | 0.7 | 0.56
ACUGGAUCAGUCGCAGAAUTT | 1.15 | 0.38
ACUUUGGACAUGACCGGCUTT | 1.2 | 0.51
ACUUUGGUUUCGGUGCAGCTT | 0.63 | 0.23
AGAAGUGUGACACGGGUCUTT | 0.93 | 0.15
AGACUACUGUGGCCAGUAATT | 1.22 | 1.1
AGACUGCAAAUAUUCCUGATT | 1.31 | 0.49
AGAGAUUCCUUUUCUUCACTT | 0.24 | 0.79
AGAUCACCGCGUAGACAACTT | 1.01 | 0.65
AGAUCCAGGAUUACGCCAGTT | 0.88 | 0.72
AGCACUGCGAGUACUGUGUTT | 0.33 | 1.08
AGCCAGAAACUCAGACACCTT | 0.99 | 0.67

Sequence | remaining TGFBR1 mRNA (TGFBR1 mRNA) | remaining TGFBR2 mRNA (TGFBR2 mRNA)
AGCCCAUGCCCUUCACAAUTT | 0.71 | 0.89
AGCCUCUGGAGAAUCUCCUTT | 1.04 | 0.6
AGCGGUGCGUUUCAGGCUGTT | 1.06 | 0.7
AGCGUCCUGAAGACUGGAUTT | 0.27 | 1.03
AGCUUAUCCAACAGACGUCTT | 1.07 | 0.29
AGCUUGUGCCAAGUGCCAUTT | 0.92 | 0.33
AGGCAACAGGGAUGAGAUGTT | 0.93 | 0.2
AGGCUAUAAGCUCGCCUACTT | 0.84 | 0.25
AGGUCAUCACGUACUUUUUTT | 0.16 | 1.09
AGGUUGUGGGCAAAGAUGUTT | 0.92 | 0.83
AGUGGUACCACGAGCAAAGTT | 0.88 | 0.66
AGUUCUCUCAAUUGCUUACTT | 0.92 | 0.54
AUAAGACAAGUGGUCGGGGTT | 0.52 | 0.94
AUAAGCAGUAAGUAGCUGGTT | 0.5 | 0.99
AUAAGCAGUGAGAACGAGCTT | 0.5 | 1.26
AUAUAUACUGCUAUGGUCATT | 0.39 | 0.39
AUAUCCCGGGAGUUGUCGUTT | 1.1 | 0.37
AUAUGUAAGACCUUCCUUCTT | 0.38 | 0.25
AUAUUCCGUAAAACGAACATT | 0.77 | 0.38
AUCCUGAGAUGUCAGCAGCTT | 1.42 | 0.4
AUCCUUGGAGAUGAGCUGGTT | 0.72 | 0.16
AUCCUUGGCCAGUUUGGUCTT | 1.19 | 0.15
AUCCUUGUCUGGAACAGUGTT | 1.33 | 0.25
AUCUAAACUCCUCUGGAGCTT | 0.76 | 0.38
